Columns and labels:
[1] = test system: human monocyte-derived dendritic cells (moDCs); experiment: Lipid titration: IL-1β secretion by LPS-activated human moDCs; type: cell-based
Description: (§1) Quantification of IL-1beta Secretion. IL-1beta secretion was assessed using the ELISA MAX Deluxe Set Human IL-1beta kit (Biolegend). ELISAs were performed according to manufacturer's instructions with the following modifications: i) total sample volume for incubation was reduced from […] the top standard was prepared at […], with two-fold dilutions to […]; and iii) sample incubation was completed overnight at 4 C on an orbital shaker. […] To determine IL-1beta concentration in supernatants, sample IL-1beta concentrations were interpolated using a standard curve via 4PL analysis on GraphPad Prism 9 (GraphPad Software). The interpolated results of samples were then adjusted for any dilutions made to the supernatant.

[2] = test system: human monocyte-derived dendritic cells (moDCs); experiment: PAMP screen: IL-1β secretion by human moDCs with PRR agonist and 22:0 Lyso PC; type: cell-based; conditions: No PAMP, 20 μM 22:0 Lyso PC alone, human moDCs
Description: Pathogen-Associated Molecular Pattern (PAMP) Screen. Innate immune signaling pathway agonists were purchased from Invivogen. Lyophilized stocks were reconstituted and stored according to manufacturer's instructions and at recommended concentrations. […] Innate immune signaling agonists were diluted in R10 media to the manufacturer's recommended working concentration and then added onto cells. 22:0 Lyso PC was then reconstituted from a lyophilized stock in R10 and then further diluted. The lipid was added onto cells at a final concentration of 20 μM. Cells were incubated for 2 days, then cultures were collected for endpoint analyses.
as §1

human moDC = experiment: IL-1β secretion by human moDC with surfactant formulations of 22:0 Lyso PC; type: cell-based
Description: Formulation of 22:0 Lyso PC with poloxamers. […] 22:0 Lyso PC was resuspended in the surfactant solution and agitated at 4° C. for an hour. Solutions were then brought to room temperature to form micelles. Using 10× concentrated PBS, salts were added to the solution to stabilize molecular interactions and provide physiologically relevant osmolarity. Lipid solutions were either left unfiltered or filtered through a pore size of 0.45 um to remove insoluble lipid flakes. Lipids were further diluted and added onto human moDC cell cultures along with 1 ug/mL R848. Targeted lipid concentrations were based on the scenario where the lipid is fully bio-available prior to filtration. However, filtration of insoluble lipid reduces the bio-available supply of lipid. Thus, IL-1beta as a measure of hyperactivity can be used as an indicator of 22:0 Lyso PC incorporation into micelles and thus into solution. One day after hyperactivation, cell culture supernatants are collected to measure cytokine secretion, and cells are used to measure viability via Cell Titer-Glo.
Salts are added to the solution to stabilize the molecular interactions and bring the solution to a physiologically relevant osmolarity. The solutions are then either left unfiltered or filtered through a pore size of 0.45 um to remove insoluble lipid flakes or particle aggregates. Lipids are then added to human moDC cultures with 1 ug/mL R848. One day after hyperactivation, cell culture supernatants were collected to measure cytokine secretion, and cells were used to measure cell viability.
Data from these studies in poloxamer formulation are shown from one human moDC donor sample. Individual data points represent the mean of triplicates.

[3] = Solubility of 22:0 Lyso PC (observation); type: physicochemical
[4] = test system: B16-F10 mouse melanoma tumor; experiment: Therapeutic whole tumor lysate vaccine in B16F10 tumor-bearing mice; type: in vivo, mouse (C57BL/6J)
Description: Ex vivo whole tumor lysate preparation. Syngeneic whole tumor lysates (WTL) were prepared from tumors explants of unimmunized tumor-bearing mice. Briefly, tumors from unimmunized mice bearing a tumor 10-12 mm of size were mechanically disaggregated using gentle MACS dissociator (Miltenyi Biotec) and enzymatically digested using the tumor Dissociation Kit (Miltenyi Biotec) following the manufacturer's protocol. After digestion, tumor cell suspensions were washed with PBS and passed through 70 um and then 30 um filters. Single cell suspension was depleted of CD45+ cells using anti-CD45 TILs microbeads (Miltenyi Biotec). Tumor cells were then counted and resuspended at 1×10^7 cells/ml then lysed by 3-4 cycles of freeze-thawing. The lysed cells were further disrupted by repeatedly passing the material through an 18G, then 21G, and finally 25G needles. Lysate was filtered again through 70 um and 30 um cell strainers and stored in aliquots at −80° C. until use. WTL were used for immunotherapy at a concentration equivalent to 5.75E5 tumor cells per mouse.
Immunotherapeutic immunization and tumor challenges. For immunizations in the context of an immunotherapeutic approach, C57BL/6J were injected on the left flank with 5×10^4 B16F10 cells. […] Mice received two boost injections at 7-day intervals.
Quantification and statistical analysis. In in vivo studies, n refers to the number of animals per condition from one or two independent experiments. Statistical differences were calculated by using unpaired two-tailed Student's t test, or one-way ANOVA with Tukey post-test. Dependent samples were analyzed with paired t tests. Statistical significance for experiments with more than two groups was tested with two-way ANOVA with Tukey multiple comparison test correction. All experiments were analyzed using Prism 7 (GraphPad Software). Graphical data was shown as mean values with error bars indicating the SD or SEM. P values of <0.05 (*), <0.01 (**) or <0.001(***);%0.0001 (****) indicated significant differences between groups.

[5] = WTL 80 ug + R848 100 ug + 65 ug lipid in […]% KP407, 2 boosts every 7 days

CCCCCCCCCCCCCCCCCCCCCC(=O)OC[C@@H](O)COP(=O)([O-])OCC[N+](C)(C)C [22:0 LYSO PC, 1-behenoyl-2-hydroxy-sn-glycero-3-phosphocholine]
concentration lower than PGPC for comparable IL-1beta secretion ([1]; 10.3 μM 22:0 Lyso PC vs 82.5 μM PGPC, + LPS): ~8 times | IL-1beta secretion (in words) ([1]; 10.3 μM lipid + LPS): retained its ability to induce IL-1beta secretion | IL-1β secretion ([1]; 10.3 μM lipid + LPS 1 μg/mL, 2 days, Table 1-5): 224.8 pg/mL | IL-1beta secretion (in words) ([1]; 20.6 μM lipid + LPS): increased IL-1beta secretion | IL-1β secretion ([1]; 20.6 μM lipid + LPS, human moDCs, 4 donors, mean (SD in wrapped line below)): 512.6 pg/mL | lipid activity index, ranking in words ([1]; lipid 1.3-82.5 μM + LPS): most potent activity by far | Activity Units (AU) ± SD (lipid activity index) ([1]; reciprocal of lowest concentration giving IL-1β two-fold over LPS x highest IL-1β signal, lipid 1.3-82.5 μM + LPS): 370.00 ± 376.36 AU | IL-1β secretion ([2]; Table 1-7, 10 donors): 1.1 pg/mL | IL-1β secretion ([2]; Table 1-8): 1.0 pg/mL | IL-1beta secretion, effect of 0.45 um filtration (in words) (human moDC; filtered vs unfiltered lipid + R848): significantly decreased the IL-1beta secreted by moDC | IL-1beta secretion (in words) (human moDC; methanol or ethanol solvent evaporation with KP407, filtered, target 82.5 uM + R848): further increased | IL-1beta secretion (in words) (human moDC; mixed with KP407 (5% in PBS), 0.45 um filtered, target 82.5 uM + R848): increased IL-1beta secretion | IL-1beta secretion (in words) (human moDC; not incorporated into KP407 micelles, 0.45 um filtered, target 82.5 uM + R848): minimal amounts of IL-1beta | IL-1beta secretion (in words) (human moDC; surfactant formulations left unfiltered + R848): high IL-1beta secretion | solubility in aqueous solution (in words) [3]: mostly insoluble in aqueous solution | solubility in alcohols (in words) ([3]; ethanol or methanol): soluble in ethanol or methanol | survival of tumor-bearing mice (in words) [4, 5]: survived longer | tumor growth kinetics (in words) [4, 5]: delayed tumor growth kinetics | benefit of vaccination (in words) ([4]; tumor lysate + R848 + lipid in PBS): No significant benefit

Reference: patent US20240197869A1, “HYPERACTIVATORS OF MAMMALIAN DENDRITIC CELLS” (Corner Therapeutics, Inc., priority 2021, published 2024)
